Measured values: ChEMBL document CHEMBL1201862, “PubChem BioAssay data set” (2004)
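A five-concentration, 48-hour dose response in 96-well plates underlies each endpoint, interpolated linearly between surrounding concentrations. GI50 is the concentration that inhibits growth by half.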 The source made the active and inactive calls. No stated cut-off is given here; in the data, active = GI50 up to about 1.1 µM and inactive = higher.

How the values were obtained:
Assay in all cases: growth of human tumour cells (NCI), 48 h
786-0 = test system: 786-0
ACHN = test system: ACHN
CAKI-1 = test system: CAKI-1
COLO 205 = test system: COLO 205
HL-60 = test system: HL-60
HT-29 = test system: HT-29
KM12 = test system: KM12
NCI-H522 = test system: NCI-H522
OVCAR-4 = test system: OVCAR-4
OVCAR-5 = test system: OVCAR-5
OVCAR-8 = test system: OVCAR-8
SF-539 = test system: SF-539
SK-OV-3 = test system: SK-OV-3
SNB-19 = test system: SNB-19
SNB-75 = test system: SNB-75
SR = test system: SR
SW-620 = test system: SW-620
TK-10 = test system: TK-10
U-251 = test system: U-251
DU-145 = test system: DU-145

Measured: GI50

CC(=O)Nc1ccc(C2=N/C(=C\c3ccc(Cl)cc3)C(=O)O2)cc1
inactive: 786-0 20.8 µM | ACHN 27.4 µM | CAKI-1 > 100 µM | COLO 205 39.2 µM | HL-60 30.3 µM | HT-29 60.7 µM | KM12 33.1 µM | NCI-H522 25.4 µM | OVCAR-4 65 µM | OVCAR-5 > 100 µM | OVCAR-8 32.1 µM | SF-539 > 100 µM | SK-OV-3 30.7 µM | SNB-19 63.7 µM | SNB-75 40.4 µM | SR 18.7 µM | SW-620 8.91 µM | TK-10 > 100 µM | U-251 38.5 µM

O=C1OC(=O)c2c1nc1ccccc1c2-c1ccccc1
inactive: 786-0 > 100 µM | ACHN > 100 µM | CAKI-1 > 100 µM | COLO 205 > 100 µM | HL-60 > 100 µM | HT-29 > 100 µM | KM12 > 100 µM | NCI-H522 > 100 µM | OVCAR-4 > 100 µM | OVCAR-5 > 100 µM | OVCAR-8 > 100 µM | SF-539 > 100 µM | SK-OV-3 > 100 µM | SNB-19 > 100 µM | SNB-75 > 100 µM | SR > 100 µM | SW-620 > 100 µM | TK-10 > 100 µM | U-251 > 100 µM

O=C1c2ccccc2-c2c1c(-c1ccc(O)cc1O)nc1ccc3ccccc3c21
inactive: 786-0 > 100 µM | ACHN > 100 µM | CAKI-1 > 100 µM | COLO 205 > 100 µM | DU-145 > 100 µM | HT-29 > 100 µM | KM12 > 100 µM | OVCAR-4 > 100 µM | OVCAR-5 > 100 µM | OVCAR-8 79.6 µM | SF-539 > 100 µM | SK-OV-3 > 100 µM | SNB-19 > 100 µM | SNB-75 > 100 µM | SW-620 > 100 µM | U-251 75.2 µM

CN(C)CCS/C(=N\c1ccccc1)N1CCCCC1
inactive: 786-0 16.3 µM | ACHN 16.5 µM | CAKI-1 47.6 µM | COLO 205 15.2 µM | HL-60 11.4 µM | HT-29 17.9 µM | KM12 16.5 µM | NCI-H522 14.7 µM | OVCAR-4 19.1 µM | OVCAR-5 17.6 µM | OVCAR-8 17.5 µM | SF-539 20.2 µM | SK-OV-3 75.7 µM | SNB-19 86.9 µM | SNB-75 21.8 µM | SR 18.6 µM | SW-620 17.8 µM | TK-10 18 µM | U-251 41.8 µM

COc1ccc(NCc2cc(OC)cc(OC)c2)cc1
inactive: 786-0 48.1 µM | ACHN 45.6 µM | CAKI-1 9.75 µM | COLO 205 9.33 µM | HL-60 7.6 µM | HT-29 6.7 µM | KM12 5.7 µM | NCI-H522 7.62 µM | OVCAR-4 18.5 µM | OVCAR-5 24.7 µM | OVCAR-8 49.1 µM | SF-539 16.3 µM | SK-OV-3 30.1 µM | SNB-19 > 68.4 µM | SNB-75 23.4 µM | SR 13.1 µM | SW-620 8.32 µM | TK-10 50.7 µM | U-251 24.4 µM

Cc1cccc(NC(=O)C(=O)C(C2OC(=O)c3ccccc32)[N+](=O)[O-])c1C (centres undefined)
inactive: 786-0 10.2 µM | ACHN 10.9 µM | CAKI-1 7.43 µM | COLO 205 15.4 µM | HL-60 2.37 µM | HT-29 16.7 µM | KM12 12.8 µM | NCI-H522 2 µM | OVCAR-4 8.11 µM | OVCAR-5 19.1 µM | OVCAR-8 13.2 µM | SF-539 18.9 µM | SK-OV-3 13.6 µM | SNB-19 16.2 µM | SNB-75 5.51 µM | SR 3.13 µM | SW-620 5.57 µM | TK-10 18 µM | U-251 3.64 µM

CC(C)[Si](OCC1CC(C#N)OC(C)(C)O1)(C(C)C)C(C)C (centres undefined)
inactive: 786-0 18.8 µM | ACHN 16 µM | CAKI-1 27.6 µM | COLO 205 17.3 µM | HL-60 13 µM | HT-29 14.6 µM | KM12 17.5 µM | NCI-H522 18.2 µM | OVCAR-4 30.3 µM | OVCAR-5 44 µM | OVCAR-8 21.1 µM | SF-539 27.1 µM | SK-OV-3 21.3 µM | SNB-19 22 µM | SNB-75 31.9 µM | SR 18.1 µM | SW-620 18.9 µM | TK-10 39.5 µM | U-251 15.8 µM

CCc1cccc(C)c1NC(=S)NC(=O)c1ccccc1C(=O)NC(=S)Nc1c(C)cccc1CC
inactive: 786-0 > 100 µM | ACHN > 100 µM | CAKI-1 56.2 µM | COLO 205 61.1 µM | HL-60 40.6 µM | HT-29 43 µM | KM12 77.1 µM | NCI-H522 18.2 µM | OVCAR-4 69.3 µM | OVCAR-5 > 100 µM | OVCAR-8 95.1 µM | SF-539 > 100 µM | SK-OV-3 > 100 µM | SNB-19 > 100 µM | SNB-75 > 100 µM | SR 38.4 µM | SW-620 75.3 µM | TK-10 > 100 µM | U-251 67.6 µM
